Laboratory results as given in patent US20230111310A1, “CARBOXYLIC ACID DERIVATIVE-SUBSTITUTED IMINO ARYL COMPOUND, PREPARATION METHOD THEREFOR, HERBICIDAL COMPOSITION AND USE THEREOF” (Qingdao Kingagroot Chemical Compound Co., Ltd., priority 2020, published 2023).

Key:
Type in all cases: in vivo
[1] = tested on: Abutilon theophrasti; assay: Weeding effect in post-emergence stage; conditions: Dose 15 g/ha; for Weeding effect in post-emergence stage, Abutilon theophrasti: level of fresh weight growth control rate; for Weeding effect in post-emergence stage, Abutilon theophrasti (level): fresh weight control rate level
In short: (§1)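 Read-out is growth control rate, counted 3 weeks post-spray and averaged over three repeats. Greenhouse plants at the 2-3 leaf stage received spray-tower application at 500, 250, 125, 60, 30, 15 or 7.5 g/ha, with methyl oleate EC (1.5 liter/ha) and Tween 80 added.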

[2] = tested on: Alopecurus japonicus; assay: Weeding effect in post-emergence stage; conditions: Dose 15 g/ha; for Weeding effect in post-emergence stage, Alopecurus japonicus: level of fresh weight growth control rate; for Weeding effect in post-emergence stage, Alopecurus japonicus (level): fresh weight control rate level
In short: as §1

[3] = tested on: Digitaria sanguinalis; assay: Weeding effect in post-emergence stage; conditions: Dose 15 g/ha; for Weeding effect in post-emergence stage, Digitaria sanguinalis: level of fresh weight growth control rate; for Weeding effect in post-emergence stage, Digitaria sanguinalis (level): fresh weight control rate level
In short: as §1

[4] = tested on: Eleusine indica; assay: Weeding effect in post-emergence stage; conditions: Dose 15 g/ha; for Weeding effect in post-emergence stage, Eleusine indica: level of fresh weight growth control rate; for Weeding effect in post-emergence stage, Eleusine indica (level): fresh weight control rate level
In short: as §1

[5] = tested on: Setaria viridis; assay: Weeding effect in post-emergence stage; conditions: Dose 15 g/ha; for Weeding effect in post-emergence stage, Setaria viridis: level of fresh weight growth control rate; for Weeding effect in post-emergence stage, Setaria viridis (level): fresh weight control rate level
In short: as §1

[6] = tested on: Echinochloa crusgalli; assay: Weeding effect in post-emergence stage; conditions: Dose 15 g/ha; for Weeding effect in post-emergence stage, Echinochloa crusgalli: level of fresh weight growth control rate; for Weeding effect in post-emergence stage, Echinochloa crusgalli (level): fresh weight control rate level
In short: as §1

[7] = tested on: Abutilon theophrasti; assay: Weeding effect in pre-emergence stage; conditions: 30 g/ha, 4 weeks
In short: (§2)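 Pots were kept in the greenhouse for 4 weeks and then rated for growth control on activity-level criteria. Spraying took place immediately after sowing at application rates of 500 to 7.5 g/ha, using an acetone/tween 80 formulation diluted with water, on seeds under 0.5-2 cm of soil.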

[8] = tested on: Amaranthus retroflexus; assay: Weeding effect in pre-emergence stage; conditions: 30 g/ha, 4 weeks
In short: as §2

[9] = tested on: Capsella bursa-pastoris; assay: Weeding effect in pre-emergence stage; conditions: 30 g/ha, 4 weeks
In short: as §2

[10] = tested on: Descurainia sophia; assay: Weeding effect in pre-emergence stage; conditions: 30 g/ha, 4 weeks
In short: as §2

[11] = tested on: Setaria viridis; assay: Weeding effect in pre-emergence stage; conditions: 30 g/ha, 4 weeks
In short: as §2

[12] = tested on: Veronica didyma Tenore; assay: Weeding effect in pre-emergence stage; conditions: 30 g/ha, 4 weeks
In short: as §2

[13] = tested on: Peanut; assay: Pre-emergence stage, crop selectivity; conditions: 30 g/ha, 4 weeks
In short: as §2

[14] = tested on: Soybeans; assay: Pre-emergence stage, crop selectivity; conditions: 30 g/ha, 4 weeks
In short: as §2

[15] = tested on: corn; assay: Pre-emergence stage, crop selectivity; conditions: 30 g/ha, 4 weeks
In short: as §2

[16] = tested on: cotton; assay: Pre-emergence stage, crop selectivity; conditions: 30 g/ha, 4 weeks
In short: as §2

SMILES	Weeding effect in post-emergence stage, Abutilon theophrasti [1]	Weeding effect in post-emergence stage, Alopecurus japonicus [2]	Weeding effect in post-emergence stage, Digitaria sanguinalis [3]	Weeding effect in post-emergence stage, Eleusine indica [4]	Weeding effect in post-emergence stage, Setaria viridis [5]	Weeding effect in post-emergence stage, Echinochloa crusgalli [6]	activity level (growth control rate) Abutilon theophrasti [7]	activity level (growth control rate) Amaranthus retroflexus [8]	activity level (growth control rate) Capsella bursa-pastoris [9]	activity level (growth control rate) Descurainia sophia [10]	activity level (growth control rate) Setaria viridis [11]	activity level (growth control rate) Veronica didyma Tenore [12]	plant damage level Peanut [13]	plant damage level Soybeans [14]	plant damage level Corn [15]	plant damage level Cotton [16]	Weeding effect in post-emergence stage, Abutilon theophrasti (level) [1]	Weeding effect in post-emergence stage, Alopecurus japonicus (level) [2]	Weeding effect in post-emergence stage, Digitaria sanguinalis (level) [3]	Weeding effect in post-emergence stage, Eleusine indica (level) [4]	further results
CC/C(C)=N/OC(=O)[C@@H](C)O/N=C/c1cc(-n2c(=O)cc(C(F)(F)F)n(C)c2=O)c(F)cc1Cl [249(R)]	5 (Level 5: growth control rate is above 85%)	5 (Level 5: growth control rate is above 85%)	5 (Level 5: growth control rate is above 85%)	5 (Level 5: growth control rate is above 85%)	5 (Level 5: growth control rate is above 85%)	5 (Level 5: growth control rate is above 85%)	5 (Level 5: growth control rate is above 85%)	5 (Level 5: growth control rate is above 85%)	5 (Level 5: growth control rate is above 85%)	5 (Level 5: growth control rate is above 85%)	5 (Level 5: growth control rate is above 85%)	5 (Level 5: growth control rate is above 85%)	0 (Level 0: growth control rate is less than 5%)	0 (Level 0: growth control rate is less than 5%)	0 (Level 0: growth control rate is less than 5%)	0 (Level 0: growth control rate is less than 5%)	–	–	–	–	–
C[C@@H](O/N=C/c1cc(-n2c(=O)cc(C(F)(F)F)n(C)c2=O)c(F)cc1Cl)C(=O)OCc1ccccc1 [283(R)]	5 (Level 5: growth control rate is above 85%)	5 (Level 5: growth control rate is above 85%)	5 (Level 5: growth control rate is above 85%)	5 (Level 5: growth control rate is above 85%)	5 (Level 5: growth control rate is above 85%)	5 (Level 5: growth control rate is above 85%)	5 (Level 5: growth control rate is above 85%)	5 (Level 5: growth control rate is above 85%)	5 (Level 5: growth control rate is above 85%)	5 (Level 5: growth control rate is above 85%)	5 (Level 5: growth control rate is above 85%)	5 (Level 5: growth control rate is above 85%)	0 (Level 0: growth control rate is less than 5%)	0 (Level 0: growth control rate is less than 5%)	0 (Level 0: growth control rate is less than 5%)	0 (Level 0: growth control rate is less than 5%)	–	–	–	–	–
COC(=O)C(C)(C)O/N=C/c1cc(-n2c(=O)cc(C(F)(F)F)n(C)c2=O)c(F)cc1Cl [Compound 433]	–	–	–	–	–	–	5 (Level 5: growth control rate is above 85%)	5 (Level 5: growth control rate is above 85%)	5 (Level 5: growth control rate is above 85%)	5 (Level 5: growth control rate is above 85%)	5 (Level 5: growth control rate is above 85%)	5 (Level 5: growth control rate is above 85%)	0 (Level 0: growth control rate is less than 5%)	0 (Level 0: growth control rate is less than 5%)	0 (Level 0: growth control rate is less than 5%)	0 (Level 0: growth control rate is less than 5%)	5 (Level 5: growth control rate is above 85%)	5 (Level 5: growth control rate is above 85%)	5 (Level 5: growth control rate is above 85%)	5 (Level 5: growth control rate is above 85%)	Weeding effect in post-emergence stage, Setaria viridis (level) [5]: 5 (Level 5: growth control rate is above 85%); Weeding effect in post-emergence stage, Echinochloa crusgalli (level) [6]: 5 (Level 5: growth control rate is above 85%)
COC(=O)[C@@H](C)O/N=C/c1cc(N2C(=O)CC(N)(C(F)(F)F)N(C)C2=O)c(F)cc1Cl (stereo partly drawn) [432(R)]	–	–	–	–	–	–	5 (Level 5: growth control rate is above 85%)	5 (Level 5: growth control rate is above 85%)	5 (Level 5: growth control rate is above 85%)	5 (Level 5: growth control rate is above 85%)	5 (Level 5: growth control rate is above 85%)	5 (Level 5: growth control rate is above 85%)	0 (Level 0: growth control rate is less than 5%)	0 (Level 0: growth control rate is less than 5%)	0 (Level 0: growth control rate is less than 5%)	0 (Level 0: growth control rate is less than 5%)	5 (Level 5: growth control rate is above 85%)	5 (Level 5: growth control rate is above 85%)	5 (Level 5: growth control rate is above 85%)	5 (Level 5: growth control rate is above 85%)	Weeding effect in post-emergence stage, Setaria viridis (level) [5]: 5 (Level 5: growth control rate is above 85%); Weeding effect in post-emergence stage, Echinochloa crusgalli (level) [6]: 5 (Level 5: growth control rate is above 85%)
COC[C@@H](O/N=C/c1cc(-n2c(=O)cc(C(F)(F)F)n(C)c2=O)c(F)cc1Cl)C(=O)OC [333(R)]	5 (Level 5: growth control rate is above 85%)	5 (Level 5: growth control rate is above 85%)	5 (Level 5: growth control rate is above 85%)	5 (Level 5: growth control rate is above 85%)	5 (Level 5: growth control rate is above 85%)	5 (Level 5: growth control rate is above 85%)	5 (Level 5: growth control rate is above 85%)	5 (Level 5: growth control rate is above 85%)	5 (Level 5: growth control rate is above 85%)	5 (Level 5: growth control rate is above 85%)	5 (Level 5: growth control rate is above 85%)	5 (Level 5: growth control rate is above 85%)	0 (Level 0: growth control rate is less than 5%)	0 (Level 0: growth control rate is less than 5%)	0 (Level 0: growth control rate is less than 5%)	0 (Level 0: growth control rate is less than 5%)	–	–	–	–	–
